Consider 6 molecules from patent US20140162876A1, “Fungicidal substituted 1--1H-[1,2,4]triazole compounds” (BASF SE, priority 2011, published 2014).

For assay [1], the system named is Septoria tritici. As to the kind of experiment: G1 Preventative control of leaf blotch on wheat caused by Septoria tritici (Septtr P7), green house. Type of assay: in vivo. Particulars: wheat sprayed 7 days before inoculation, % diseased leaf area, untreated control 80. The procedure: The spray solutions were prepared in several steps: The stock solution were prepared: a mixture of acetone and/or dimethylsulfoxide and the wetting agent/emulsifier Wettol, which is based on ethoxylated alkylphenoles, in a relation (volume) solvent-emulsifier of 99 to 1 was added to 25 mg of the compound to give a total of 5 ml. Water was then added to total volume of 100 ml. This stock solution was diluted with the described solvent-emulsifier-water mixture to the given concentration. G1 Preventative Control of Leaf Blotch on Wheat Caused by Septoria tritici (Septtr P7) Leaves of pot-grown wheat seedling were sprayed to run-off with an aqueous suspension of the active compound or their mixture, prepared as described. The plants were allowed to air-dry. Seven days later the plants were inoculated with an aqueous spore suspension of Septoria tritici. Then the trial plants were immediately transferred to a humid chamber at 18-22° C. and a relative humidity close to 100%. […] After 4 weeks the extent of fungal attack on the leaves was visually assessed as % diseased leaf area.

The subject of a further assay is Phakopsora pachyrhizi. Nature of the assay: G4 Protective control of soy bean rust on soy beans caused by Phakopsora pachyrhizi (Phakpa P2), green house. To be noted: soy bean sprayed 2 days before inoculation, % diseased leaf area, untreated control 90. Type of assay: in vivo.
The test system of assay [2] is Septoria tritici. As to the kind of experiment: G2 Curative control of leaf blotch on wheat caused by Septoria tritici (Septtr K7), green house. In kind it is in vivo. To be noted: wheat sprayed 7 days after inoculation (curative), % diseased leaf area, untreated control 80. The procedure: The spray solutions were prepared in several steps: The stock solution were prepared: a mixture of acetone and/or dimethylsulfoxide and the wetting agent/emulsifier Wettol, which is based on ethoxylated alkylphenoles, in a relation (volume) solvent-emulsifier of 99 to 1 was added to 25 mg of the compound to give a total of 5 ml. Water was then added to total volume of 100 ml. This stock solution was diluted with the described solvent-emulsifier-water mixture to the given concentration. G2 Curative Control of Leaf Blotch on Wheat Caused by Septoria tritici (Septtr K7) Leaves of pot-grown wheat seedling were inoculated with an aqueous spore suspension of Septoria tritici. Then the trial plants were immediately transferred to a humid chamber at 18-22° C. and a relative humidity close to 100%. […] Seven days after inoculation the plants were sprayed to run-off with an aqueous suspension of the active compound or their mixture, prepared as described. […] After 4 weeks the extent of fungal attack on the leaves was visually assessed as % diseased leaf area.

The next assay deals with Pyricularia oryzae. In kind it is cell-based. Particulars: microtiter plate, 7 days after inoculation.
For another assay, the system named is Botrytis cinerea. As to the kind of experiment: M2 Activity against the grey mold Botrytis cinerea in the microtiterplate test (Botrci). In kind it is cell-based. Particulars: microtiter plate, 7 days after inoculation.
The subject of a further assay is Alternaria solani. Nature of the assay: M3 Activity against early blight caused by Alternaria solani (Alteso), microtest. Particulars: microtiter plate, 7 days after inoculation. In kind it is cell-based.
In assay [3] the test system is Septoria tritici. Nature of the assay: M4 Activity against leaf blotch on wheat caused by Septoria tritici (Septtr), microtest. Type of assay: cell-based. To be noted: microtiter plate, 7 days after inoculation.

Each structure is given as a SMILES string.

On to `COC(C)(Cn1cncn1)c1ccc(Oc2ccc(Cl)cc2)cc1Cl` (stereo not shown), for which, in the assay with Septoria tritici [1], the “Disease (%) at 16 ppm Septtr P7” value is listed as 80%.

`CCC(Cn1cncn1)(OC)c1ccc(Oc2ccc(Cl)cc2)cc1Cl` (stereo not shown): in the assay with Phakopsora pachyrhizi, the “Disease (%) at 16 ppm Phakpa P2” value was 80%.

As to `CCOC(C)(Cn1cncn1)c1ccc(Oc2ccc(Cl)cc2)cc1Cl` (stereo not shown) [Compound I-1], the “Disease (%) at 16 ppm Septtr P7” value with Septoria tritici [1] was 40%. The “Disease (%) at 250 ppm Septtr K7” value in the assay with Septoria tritici [2] is listed as 10%. The “Disease (%) at 250 ppm Phakpa P2” value in the assay on Phakopsora pachyrhizi is reported as 5%. In the assay on Pyricularia oryzae, the “Disease (%) at 0.125 ppm Pyrior” value was found to be 50%. For the same molecule, the “Disease (%) at 2 ppm Botrci” value in the assay on Botrytis cinerea is 0%. Also, the “Disease (%) at 0.125 ppm Alteso” value with Alternaria solani is 25%. In addition, in the assay with Septoria tritici [3], the “Disease (%) at 0.032 ppm Septtr” value came out at 5%.

As for `CCOC(CC)(Cn1cncn1)c1ccc(Oc2ccc(Cl)cc2)cc1Cl` (stereo not shown) [Compound I-2, 1-[2-[2-chloro-4-(4-chlorophenoxy)phenyl]-2-ethoxy-butyl]-1,2,4-triazole], the “Disease (%) at 16 ppm Phakpa P2” value in the assay with Phakopsora pachyrhizi was 40%.

Turning to `CCOC(Cn1cncn1)c1ccc(Oc2ccc(Cl)cc2)cc1Cl` (stereo not shown) [drawing 21], the “Disease (%) at 250 ppm Septtr K7” value in the assay with Septoria tritici [2] is listed as 40%. Besides, the “Disease (%) at 250 ppm Phakpa P2” value in the assay with Phakopsora pachyrhizi turned out to be 30%.

With `CCOC(Cn1cncn1)c1ccc(Oc2ccc(Cl)cc2)cc1Cl` (stereo not shown) [drawing 24], the “Disease (%) at 0.125 ppm Pyrior” value in the assay on Pyricularia oryzae was determined as 84%. Besides, the “Disease (%) at 2 ppm Botrci” value in the assay with Botrytis cinerea turned out to be 24%. The “Disease (%) at 0.125 ppm Alteso” value in the assay on Alternaria solani was 44%. Further, the “Disease (%) at 0.032 ppm Septtr” value in the assay with Septoria tritici [3] is on record as 31%.
